Test results published in US6355799B1, “Substituted benzene compounds, process for their preparation, and herbicidal and defoliant compositions containing them” (ISK Americas Incorporated, priority 1997, dated 2002).

Columns and labels:
Format in all cases: in vivo
[1] = system: field corn (Zea mays L., var. Dekalb 535, CORN); experiment: Post-emerge test, crop safety; details: post-emerge, 14 days after application, rating scale 0-100
In short: (§1)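 Herbicidal damage is scored 0 (none) to 100 (complete plant death) two weeks after a simulated field spray. Rates span 15–1000 g ai/ha, delivered in acetone at 187 l/ha. For post-emergence treatments, plants have 2–3 leaves and the spray carries 0.25% v/v non-ionic surfactant.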

[2] = system: upland rice (Oryza sp., var. Tebonnet, RICE); experiment: Post-emerge test, crop safety; details: post-emerge, 14 days after application, rating scale 0-100
In short: as §1

[3] = system: johnsongrass (Sorghum halepense, SORHA); experiment: Post-emerge test, greenhouse herbicide activity screening; details: post-emerge, 14 days after application, rating scale 0-100
In short: (§2)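 Applied at 15–1000 g ai/ha from acetone in 187 l/ha spray volume. Post-emergence applications included 0.25% v/v non-ionic surfactant and reached plants sown 8–21 days before. Pre-emergence applications were incorporated by surface watering. Efficacy or crop damage was rated on a 0–100 scale after 14 days.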

[4] = system: lambsquarters (Chenopodium album, CHEAL); experiment: as above; details: post-emerge, 14 days after application, rating scale 0-100
In short: as §2

[5] = system: sicklepod (Cassia obtusifolia, CASOB); experiment: as above; details: post-emerge, 14 days after application, rating scale 0-100
In short: as §2

[6] = system: velvetleaf (Abutilon theophrasti, ABUTH); experiment: as above; details: post-emerge, 14 days after application, rating scale 0-100
In short: as §2

[7] = system: common ragweed (Ambrosia artemisizfolia L., AMBEL); experiment: as above; details: post-emerge, 14 days after application, rating scale 0-100
In short: as §2

[8] = system: large crabgrass (Digitaria sanguinalis, DIGSA); experiment: as above; details: post-emerge, 14 days after application, rating scale 0-100
In short: as §2

[9] = system: ivyleaf morningglory (Ipomoea hederacea, IPOHE); experiment: as above; details: post-emerge, 14 days after application, rating scale 0-100
In short: as §2

[10] = system: green foxtail (Setaria viridis, SETVI); experiment: as above; details: post-emerge, 14 days after application, rating scale 0-100
In short: as §2

[11] = system: barnyardgrass (Echinochloa crus-galli, ECHCG); experiment: as above; details: post-emerge, 14 days after application, rating scale 0-100
In short: as §2

[12] = system: redroot pigweed (Amaranthus retroflexus, AMARE); experiment: as above; details: post-emerge, 14 days after application, rating scale 0-100
In short: as §2

[13] = system: field corn (Zea mays L., var. Dekalb 535, CORN); experiment: Pre-emerge test, crop safety; details: rated 14 days after application, 0 = no damage, 100 = complete death
In short: as §2

[14] = system: upland rice (Oryza sp., var. Tebonnet, RICE); experiment: Pre-emerge test, crop safety; details: rated 14 days after application, 0 = no damage, 100 = complete death
In short: as §2

[15] = system: redroot pigweed (Amaranthus retroflexus, AMARE); experiment: Pre-emerge test, greenhouse herbicide activity screening; details: rated 14 days after application, 0 = no damage, 100 = complete death
In short: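 Rating: 0–100 visual injury, 14 DAA. Application: acetone, 187 l/ha, 15–1000 g ai/ha, flat-fan track sprayer with nozzle 40–45 cm above soil or canopy. Post-emerge runs used 0.25% v/v surfactant on 2–3 leaf plants.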

[16] = system: johnsongrass (Sorghum halepense, SORHA); experiment: as above; details: rated 14 days after application, 0 = no damage, 100 = complete death
In short: as §1

[17] = system: lambsquarters (Chenopodium album, CHEAL); experiment: as above; details: rated 14 days after application, 0 = no damage, 100 = complete death
In short: as §1

[18] = system: sicklepod (Cassia obtusifolia, CASOB); experiment: as above; details: rated 14 days after application, 0 = no damage, 100 = complete death
In short: as §1

[19] = system: velvetleaf (Abutilon theophrasti, ABUTH); experiment: as above; details: rated 14 days after application, 0 = no damage, 100 = complete death
In short: as §1

[20] = system: common ragweed (Ambrosia artemisizfolia L., AMBEL); experiment: as above; details: rated 14 days after application, 0 = no damage, 100 = complete death
In short: as §1

[21] = system: large crabgrass (Digitaria sanguinalis, DIGSA); experiment: as above; details: rated 14 days after application, 0 = no damage, 100 = complete death
In short: as §1

[22] = system: ivyleaf morningglory (Ipomoea hederacea, IPOHE); experiment: as above; details: rated 14 days after application, 0 = no damage, 100 = complete death
In short: as §1

[23] = system: green foxtail (Setaria viridis, SETVI); experiment: as above; details: rated 14 days after application, 0 = no damage, 100 = complete death
In short: as §1

[24] = system: barnyardgrass (Echinochloa crus-galli, ECHCG); experiment: as above; details: rated 14 days after application, 0 = no damage, 100 = complete death
In short: as §1

For `COc1c(Cl)cc(F)c(-n2c(=O)cc(C(F)(F)F)n(C)c2=O)c1NC(=O)c1ccc(CCl)cc1` [2-36], the “phytotoxicity rating CORN” value ([1]; 63 g ai/ha) was 10, the “phytotoxicity rating CORN” value ([1]; 250 g ai/ha) was 20 and the “phytotoxicity rating RICE” value ([2]; 63 g ai/ha) was 25. For the same molecule, the “phytotoxicity rating RICE” value ([2]; 250 g ai/ha) was 40, the “phytotoxicity rating SORHA” value ([3]; 63 g ai/ha) was 10 and the “phytotoxicity rating SORHA” value ([3]; 250 g ai/ha) was 10. The “phytotoxicity rating CHEAL” value ([4]; 63 g ai/ha) was 95, the “phytotoxicity rating CHEAL” value ([4]; 250 g ai/ha) was 100 and the “phytotoxicity rating CASOB” value ([5]; 63 g ai/ha) was 60. The “phytotoxicity rating CASOB” value ([5]; 250 g ai/ha) was 60, the “phytotoxicity rating ABUTH” value ([6]; 63 g ai/ha) was 100 and the “phytotoxicity rating ABUTH” value ([6]; 250 g ai/ha) was 100. The “phytotoxicity rating AMBEL” value ([7]; 63 g ai/ha) was 80, the “phytotoxicity rating AMBEL” value ([7]; 250 g ai/ha) was 95 and the “phytotoxicity rating DIGSA” value ([8]; 63 g ai/ha) was 20. For the same molecule, the “phytotoxicity rating DIGSA” value ([8]; 250 g ai/ha) was 20, the “phytotoxicity rating IPOHE” value ([9]; 63 g ai/ha) was 100 and the “phytotoxicity rating IPOHE” value ([9]; 250 g ai/ha) was 100. The “phytotoxicity rating SETVI” value ([10]; 63 g ai/ha) was 50, the “phytotoxicity rating SETVI” value ([10]; 250 g ai/ha) was 60 and the “phytotoxicity rating ECHCG” value ([11]; 63 g ai/ha) was 10. The “phytotoxicity rating ECHCG” value ([11]; 250 g ai/ha) was 0, the “phytotoxicity rating AMARE” value ([12]; 63 g ai/ha) was 100 and the “phytotoxicity rating AMARE” value ([12]; 250 g ai/ha) was 100. The “Pre-emerge phytotoxicity rating (0-100), crop damage, CORN” value ([13]; 63 g ai/ha) was 0, the “Pre-emerge phytotoxicity rating (0-100), crop damage, CORN” value ([13]; 250 g ai/ha) was 0 and the “Pre-emerge phytotoxicity rating (0-100), crop damage, RICE” value ([14]; 63 g ai/ha) was 0. The “Pre-emerge phytotoxicity rating (0-100), crop damage, RICE” value ([14]; 250 g ai/ha) was 40, the “Pre-emerge Herbicidal Activity, phytotoxicity rating (0-100), AMARE” value ([15]; 63 g ai/ha) was 100 and the “Pre-emerge Herbicidal Activity, phytotoxicity rating (0-100), AMARE” value ([15]; 250 g ai/ha) was 100. The “Pre-emerge Herbicidal Activity, phytotoxicity rating (0-100), SORHA” value ([16]; 63 g ai/ha) was 0, the “Pre-emerge Herbicidal Activity, phytotoxicity rating (0-100), SORHA” value ([16]; 250 g ai/ha) was 20 and the “Pre-emerge Herbicidal Activity, phytotoxicity rating (0-100), CHEAL” value ([17]; 63 g ai/ha) was 90. For the same molecule, the “Pre-emerge Herbicidal Activity, phytotoxicity rating (0-100), CHEAL” value ([17]; 250 g ai/ha) was 100, the “Pre-emerge Herbicidal Activity, phytotoxicity rating (0-100), CASOB” value ([18]; 63 g ai/ha) was 10 and the “Pre-emerge Herbicidal Activity, phytotoxicity rating (0-100), CASOB” value ([18]; 250 g ai/ha) was 70. The “Pre-emerge Herbicidal Activity, phytotoxicity rating (0-100), ABUTH” value ([19]; 63 g ai/ha) was 100, the “Pre-emerge Herbicidal Activity, phytotoxicity rating (0-100), ABUTH” value ([19]; 250 g ai/ha) was 100 and the “Pre-emerge Herbicidal Activity, phytotoxicity rating (0-100), AMBEL” value ([20]; 63 g ai/ha) was 0. For the same molecule, the “Pre-emerge Herbicidal Activity, phytotoxicity rating (0-100), AMBEL” value ([20]; 250 g ai/ha) was 30, the “Pre-emerge Herbicidal Activity, phytotoxicity rating (0-100), DIGSA” value ([21]; 63 g ai/ha) was 0 and the “Pre-emerge Herbicidal Activity, phytotoxicity rating (0-100), DIGSA” value ([21]; 250 g ai/ha) was 30. The “Pre-emerge Herbicidal Activity, phytotoxicity rating (0-100), IPOHE” value ([22]; 63 g ai/ha) was 0, the “Pre-emerge Herbicidal Activity, phytotoxicity rating (0-100), IPOHE” value ([22]; 250 g ai/ha) was 60 and the “Pre-emerge Herbicidal Activity, phytotoxicity rating (0-100), SETVI” value ([23]; 63 g ai/ha) was 25. For the same molecule, the “Pre-emerge Herbicidal Activity, phytotoxicity rating (0-100), SETVI” value ([23]; 250 g ai/ha) was 90, the “Pre-emerge Herbicidal Activity, phytotoxicity rating (0-100), ECHCG” value ([24]; 63 g ai/ha) was 0 and the “Pre-emerge Herbicidal Activity, phytotoxicity rating (0-100), ECHCG” value ([24]; 250 g ai/ha) was 10.
